The record followed here is the NIST ThermoML archive (doi:10.1016/j.fluid.2013.11.023).

± gives the expanded uncertainty stated by the source.

For the data set the following is noted: Crystal; DTA.

For the compound `Brc1sc(Br)c(Br)c1Br` [perbromothiophene], the Normal melting temperature was found to be 118.60 ± 4 °C.
